Common to all, as to assay: NCI anticancer screen, dose series, 48 h
Experiment [1] has as its system MDA-MB-231 breast.
The test system of experiment [2] is NCI-H23 lung.
Experiment [3] concerns ACHN renal.
Experiment [4] deals with MALME-3M melanoma.
The test system of experiment [5] is U251 CNS.
The test system of experiment [6] is NCI/ADR-RES ovarian.
Experiment [7] deals with M14 melanoma.
Experiment [8] concerns SNB-19 CNS.
In experiment [9] the test system is KM12 colon.
Experiment [10] has as its system HOP-92 NSCLC.

Molecules are shown by their SMILES.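 Cells were grown in 96-well plates and exposed to each compound for 48 hours at five concentrations; endpoints were interpolated linearly between bracketing concentrations, or set to the highest concentration if not reached. TGI is the concentration that stops growth completely.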 Some results are limits rather than exact numbers.

In the case of `S=C(/N=c1\sc(Nc2ccc(Cl)cc2)nc2sc3c(c12)CCN(N1CCc2c(sc4nc(Nc5ccc(Cl)cc5)s/c(=N\C(=S)Nc5ccc(Cl)cc5)c24)C1)C3)Nc1ccc(Cl)cc1`, the TGI in [1] was 35.1 µM; in experiment [2], above 100 µM; in experiment [3], above 100 µM; in experiment [4], above 100 µM; in [5], 61.9 µM; in experiment [6] it was above 100 µM. Moreover, the TGI in experiment [7] and in experiment [8] was above 100 µM in each case.

Take `CCOC(=O)c1c(-c2ccccc2)c(-c2ccccc2)cn1C`: the TGI in experiment [2], in experiment [3], in [4], in [5], in experiment [6] and in experiment [9] was above 10 µM in each case. The TGI in [10], in experiment [7] and in [8] was above 10 µM in each case.

`CCC1=CC2CN3Cn4c(c(COCc5c6n(c7ccccc57)CN5CC7C=C(CC)C5C6(C(=O)OC)C7)c5ccccc54)C(C(=O)OC)(C2)C13`: the TGI in [2], in experiment [3], in experiment [4], in experiment [5], in [9] and in [7] was above 100 µM throughout. Also, in [8], the TGI is above 100 µM.

In the case of `CC(C)=CCC/C(C)=C/COC(C)(C)C1=CCC(C)CC1` (configuration not stated) (tested in a mixture with another compound), the TGI in experiment [2], in experiment [3], in experiment [4], in experiment [5], in experiment [9] and in experiment [10] was above 100 µM throughout. For the same molecule, the TGI in experiment [7] and in [8] was above 100 µM in each case.

Take `CCN1CCCC(NCc2c3ccccc3c(CNC3CCCN(CC)C3)c3ccccc23)C1` (configuration not stated): the TGI in experiment [2] worked out at 34.8 µM; in experiment [4], 40.9 µM; in experiment [5], 45.3 µM; in experiment [6], 79.7 µM; in [9], 31.9 µM; in experiment [10] it was 38.6 µM. Further, in experiment [8], the TGI amounted to 65.8 µM.

As to `CSC(=Nc1ccccc1)N(c1ccccc1)c1nc(=[N+](C)C)ss1`, the TGI worked out at 19.8 µM in [2]; 16.9 µM in experiment [3]; 22.6 µM in experiment [4]; 17.2 µM in experiment [5]; 13.7 µM in [9]; 7.09 µM in experiment [10]. The TGI stood at 2.5 µM in experiment [7] and 15.4 µM in experiment [8].

As to `O=[N+]([O-])c1ccc(/C=C/c2cc(-c3ccccc3)nc3ccc4ccccc4c23)cc1`, the TGI in experiment [1], in experiment [2], in experiment [3], in [4], in experiment [5] and in [6] was above 100 µM each time. Further, the TGI in experiment [9], in experiment [7] and in experiment [8] was above 100 µM in each case.

Turning to `CC(=O)c1cccn1/C=C(\OC(=O)OC(C)(C)C)c1ccc[nH]1`, the TGI in [1], in experiment [2], in experiment [3], in [4], in experiment [5] and in experiment [6] was above 100 µM throughout. The TGI in experiment [9], in [7] and in experiment [8] was above 100 µM throughout.

Turning to `COc1c(O)c2c3c(c(C)cc(O)c3c1O)C(=O)C(O)(C(C)(C)C(C)=O)C2=O` (configuration not stated), the TGI in [2], in experiment [3], in experiment [4], in experiment [5], in [9] and in [10] was above 100 µM throughout. In addition, the TGI in experiment [7] and in experiment [8] was above 100 µM each time.

With `C=Cc1ccc(C)[n+](C[Si](C)(C)O[Si](C)(C)C[n+]2cc(C=C)ccc2C)c1`, the TGI in [2], in experiment [3], in experiment [4], in experiment [5], in experiment [9] and in experiment [10] was above 100 µM throughout. The TGI in experiment [7] and in experiment [8] was above 100 µM each time.

On to `O=C(NC(COC(=O)C(Cc1ccccc1)NC(=O)c1ccccc1)Cc1ccccc1)c1ccccc1` (configuration not stated), for which the TGI in experiment [2], in experiment [3], in [4], in [5], in [9] and in [10] was above 50 µM in each case. Besides, the TGI in [7] and in [8] was above 50 µM in each case.

As for `COc1ccc(CC2c3c(cc(OC)c(OC)c3OC)CCN2C)cc1OC` (configuration not stated), the TGI in [2], in [3], in [4], in [5], in experiment [9] and in experiment [7] was above 100 µM throughout. Moreover, the TGI in experiment [8] is above 100 µM.

Regarding `COc1cc2c(cc1OC)[C@H]1CN3CCC[C@H]3C=C1c1ccc(OC)c(O)c1-2`, the TGI stood at 0.0523 µM in [1]; 0.00184 µM in experiment [2]; 0.0154 µM in experiment [3]; 0.00179 µM in experiment [4]; 1.25 µM in experiment [5]; 0.00183 µM in [9]. The TGI amounted to 0.000382 µM in [10] and 0.000985 µM in [7].

`CC1=NN(C(=O)CC(=O)Nc2ccccc2F)C(=O)C1N=Nc1ccccc1[N+](=O)[O-]` (configuration not stated): the TGI in experiment [2], in experiment [4], in [5], in [9], in experiment [7] and in [8] was above 100 µM each time.

Turning to `CC12CCC3C(CCC4CC(OC(=O)Cc5ccc(N(CCCl)CCCl)cc5)CCC43C)C1CCC(=O)N2` (configuration not stated), the TGI was 25.8 µM in [2]; 23.2 µM in experiment [3]; 32.9 µM in experiment [4]; 28.4 µM in experiment [5]; 32.1 µM in [9]; 30.9 µM in [10]. The TGI in experiment [7] turned out to be 32.2 µM; in experiment [8], 32.5 µM.

In the case of `CC(C(=O)N1C(=O)N(C(=O)C(C)C(O)c2ccccc2)C2CCCCC21)C(O)c1ccccc1` (configuration not stated), the TGI in [2], in [3], in experiment [4], in experiment [5], in [9] and in experiment [7] was above 100 µM in each case. The molecule further displayed a TGI in experiment [8] above 100 µM.

For the molecule `C(=Nc1ccc(-c2nc3ccccc3o2)cc1)c1ccco1`, the TGI in experiment [2], in [3], in experiment [4], in experiment [6], in experiment [10] and in experiment [7] was above 100 µM each time. The molecule also returned a TGI in [8] above 100 µM.

As for `CC(=O)OCC1OC(n2cc(I)c(=O)[nH]c2=O)C(OC(C)=O)C(OC(C)=O)C1OC(C)=O` (configuration not stated), the TGI in experiment [2], in experiment [3], in experiment [4], in experiment [5], in experiment [9] and in [10] was above 100 µM throughout. In addition, the TGI in [7] and in experiment [8] was above 100 µM throughout.

Consider `O=C1Sc2ccccc2C(=O)N2CSCC12` (configuration not stated), for which the TGI in [2], in [3], in [4], in [5], in experiment [9] and in experiment [10] was above 100 µM throughout. In addition, the TGI in [7] and in experiment [8] was above 100 µM each time.

Regarding `CC[n+]1[b-](C(C)(C)C)n(/N=C/C(C)(C)C)[b-](C(C)(C)C)[n+]1CC`, the TGI in experiment [1], in experiment [2], in [3], in experiment [4], in experiment [5] and in experiment [6] was above 100 µM in each case. In addition, the TGI in experiment [9], in experiment [7] and in [8] was above 100 µM in each case.

As to `COC(=O)c1c2c(cc3c1CCC3)CCC2`, the TGI in [1], in experiment [2], in [3], in [4], in experiment [5] and in experiment [6] was above 100 µM throughout. Further, the TGI in [9], in [7] and in experiment [8] was above 100 µM throughout.

As to `N#CCc1nc(-c2ccccc2)n[nH]1`, the TGI in experiment [1], in experiment [2], in experiment [3], in [4], in [6] and in [9] was above 100 µM in each case. Further, the TGI in [7] and in [8] was above 100 µM in each case.

For the molecule `CC(C)(C)OC(=O)NCCC(N)=S`, the TGI in [2], in [3], in experiment [4], in experiment [5], in experiment [6] and in [9] was above 100 µM each time. Besides, the TGI in [10], in experiment [7] and in experiment [8] was above 100 µM in each case.

Turning to `COc1ccc(-c2oc(/C=N/NC(N)=S)c([N+](=O)[O-])c2-c2ccc(OC)c(OC)c2)cc1OC`, the TGI was above 100 µM in experiment [2]; 76.3 µM in experiment [3]; 35.9 µM in [4]; 79 µM in [10]; 67.9 µM in [7]; 97 µM in [8].

On to `O=C(Nc1ccccc1F)c1cc2ccc(O)cc2oc1=Nc1ccccc1F`, for which the TGI in [2] came to 4.52 µM; in experiment [3], 5.3 µM; in [4], 3.44 µM; in [5], 3.63 µM; in experiment [6], 5.93 µM; in experiment [9], 5.37 µM. The TGI in experiment [7] worked out at 5.57 µM; in experiment [8], 18.6 µM.

As for `CCN(CC)CCCNC(=O)c1ccc([N+](=O)[O-])cc1O`, the TGI in experiment [2], in experiment [3], in [4], in experiment [5], in experiment [9] and in [10] was above 100 µM in each case. Further, the TGI in experiment [7] and in experiment [8] was above 100 µM throughout.

With `O=C(O)c1cc(-c2ccc3c(O)c(O)ccc3c2)ccc1O`, the TGI in experiment [1] is 54.1 µM; in [2], above 75 µM; in [3], above 75 µM; in experiment [4], above 75 µM; in experiment [5], 26.1 µM; in [6], above 75 µM. Further, the TGI was above 75 µM in experiment [9], 70.6 µM in [7] and above 75 µM in experiment [8].

For `CSc1c(C#N)c(N)n(-c2ccc(C)cc2)c(=O)c1C#N`, the TGI in experiment [1], in experiment [2], in [4], in experiment [5], in experiment [6] and in experiment [9] was above 100 µM each time. Also, the TGI in experiment [7] and in experiment [8] was above 100 µM throughout.

For the molecule `O=C(CN(c1ccccc1)c1ccccc1)N1c2ccccc2C2C=CC=CC21` (configuration not stated), the TGI was 53.5 µM in [2]; above 59.1 µM in [3]; 47.1 µM in experiment [4]; above 56.5 µM in experiment [5]; 96.8 µM in experiment [9]; above 57.3 µM in experiment [7]. Besides, in experiment [8], the TGI was found to be 38.1 µM.

As to `COc1ccc(-c2c3c([nH]c(=S)c2C#N)CC(C)(C)CC3=O)cc1`, the TGI in experiment [1], in [2], in experiment [3], in [4], in experiment [5] and in [9] was above 100 µM in each case. In addition, the TGI in experiment [10], in experiment [7] and in experiment [8] was above 100 µM throughout.

With `O=c1ccn(C2OC(CO)C(P(=O)(O)O)C2O)c(=O)[nH]1` (configuration not stated), the TGI in [1], in experiment [2], in [3], in experiment [4], in [5] and in [9] was above 100 µM in each case. Further, the TGI in [10], in experiment [7] and in [8] was above 100 µM in each case.

The values are drawn from PubChem BioAssay (NCI).
